Columns and labels:
Format in all cases: cell-based, human
[1] = system: LMR20 cells; test: Proliferation of MDV3100-resistant LMR20 cells (MTT; with R1881 or DHT); settings: 5 days
Description: LMR20 cells were plated at 1,500 cells per well in phenol red-free medium with charcoal-stripped fetal bovine serum (CSS), to remove any androgens from the medium (Life Technologies). […] The synthetic androgen agonist, R1881, (Takeda, A. N. et al., Mol. Pharmacol. 2007. 71: 473-82) was added on day 1 at 1 nM dose to a set of cells also treated with each of the antisense oligonucleotides. DHT was added on day 1 at a dose of 10 nM to another set of cells also treated with each of the antisense oligonucleotides. […] After a treatment period of 5 days, the proliferative ability of the cancer cells was measured by the standard MTT assay. Results are presented in Table 42 as percent inhibition of proliferation, relative to non-treated cells.

[2] = system: AR V7 variant mRNA; test: AR V7 variant RNA in VCaP cells; settings: 48 hrs
Description: Cells were plated at 10,000 cells per well. […] ISIS 549148 was included as a negative control. After an incubation period of 48 hrs, RNA levels of full length AR, the V7 variant, PSA and TMPRSS2 were measured.
A separate set of cells was treated with MDV-3100 at 0.04 μM, 0.2 μM, 1.0 μM, or 5.0 μM. After an incubation period of 48 hrs, RNA levels of full length AR, the V7 variant, PSA and TMPRSS2 were measured. The data is presented in Tables 108 expressed as percent expression of gene levels compared to the untreated control.
Cells were plated at 15,000 cells per well and cultured in CSS media for 16 hours. […] ISIS 549148 was included as a negative control. After 4 hrs, 1 nM DHT was added. […] After an incubation period of 48 hrs, RNA levels of AR, PSA and TMPRSS2 were measured. […]

[3] = system: TMPRSS2 mRNA; test: TMPRSS2 mRNA levels in LMR20 cells; settings: for TMPRSS2 mRNA levels (% baseline value) after treatment with DHT / TMPRSS2 mRNA levels (% baseline value) after treatment with R1881 / TMPRSS2 mRNA levels (% baseline value) of cells without AR agonist treatment: LMR20 cells; for TMPRSS2 mRNA levels (% baseline value) after treatment with DHT: DHT 10 nM 72 hrs; for TMPRSS2 mRNA levels (% baseline value) after treatment with R1881: R1881 10 nM 72 hrs; for TMPRSS2 mRNA levels (% baseline value) of cells without AR agonist treatment: no AR agonist
Description: LMR20 cells were plated at 1,500 cells per well in phenol red-free medium with CSS.

[4] = system: cleaved PARP; test: Cleaved PARP western blot in VCaP cells
[5] = system: TMPRSS2 mRNA; test: TMPRSS2 expression in LNCaP cells (complete, CSS+DHT medium); settings: for Percent inhibition of TMPRSS2 expression in LNCaP cells cultured in CSS + DHT medium: CSS + DHT (1 nM) medium, 48 hrs; for Percent inhibition of TMPRSS2 expression in LNCaP cells cultured in complete medium: 48 hours
Description: Cells were plated at 1,000 cells per well. […] ISIS 549148 was included as a negative control. […] After an incubation period of 48 hours, RNA levels of AR, PSA and TMPRSS2 were measured.
Cells were plated at 2,000 cells per well and cultured in phenol red-free RPMI supplemented with 5% charcoal stripped serum (Gibco) media for 16 hours. […] ISIS 549148 was included as a negative control. […] After an incubation period of 4 hrs, DHT was added to the medium to a final concentration of 1 nM as indicated. RNAs were collected 48 hrs later and levels of AR, PSA and TMPRSS2 were measured. In the absence of DHT, AR expression in LNCaP cells was 95%, PSA expression was 7% and TMPRSS2 expression was 24% compared to the untreated control.

[6] = system: 22RV1 cells; test: 22RV1 cell proliferation, ASO in combination with MDV3100 (Example 22); settings: Homo sapiens, 22Rv1, read-out: inhibited proliferation, MDV3100 with control oligonucleotide ISIS 549148
Description: 22RV1 cells were plated at 2,000 cells per well in 5% CSS medium for 48 hours. […] ISIS 549148 was included as a negative control. […] After a treatment period of 3 days, the proliferative capacity of the cancer cells was measured with CellTiter 96® AQueous One Solution Cell Proliferation kit (Promega), following the manufacturer's instructions. Results are presented in Tables 58-62 as percent inhibition of proliferation, relative to non-treated cells.

[7] = system: AR mRNA; test: Time-course AR mRNA expression in C4-2B cells (8, 24, 48 hours); settings: for Percent expression of AR compared to the control group in 8 hours / Percent expression of AR compared to the control group in 24 hours / Percent expression of AR compared to the control group in 48 hours: C4-2B cells
Description: C4-2B cells were plated at 1,000 cells per well in complete medium. […] After a treatment period of 8 hours, 24 hours, and 48 hours, AR expression was measured with primer probe set hAR-LTS00943.

In the case of `CNC(=O)c1ccc(N2C(=S)N(c3ccc(C#N)c(C(F)(F)F)c3)C(=O)C2(C)C)cc1F` [MDV3100, 4-(3-(4-cyano-3-(trifluoromethyl)phenyl)-5,5-dimethyl-4-oxo-2-thioxoimidazolidin-1-yl)-2-fluoro-N-methylbenzamide, reference compound], the “Percent inhibition of LMR20 cell proliferation” value ([1]; CSS + DHT, ASO 0.04 μM) is reported as 0%, the “Percent inhibition of LMR20 cell proliferation” value ([1]; CSS + DHT, ASO 0.20 μM) is reported as 1% and the “Percent inhibition of LMR20 cell proliferation” value ([1]; CSS + DHT, ASO 1.0 μM) is reported as 13%. For the same compound, the “Percent inhibition of LMR20 cell proliferation” value ([1]; CSS + DHT, ASO 5.0 μM) was 41%, the “Percent inhibition of LMR20 cell proliferation” value ([1]; CSS + R1881, ASO 0.04 μM) was 0% and the “Percent inhibition of LMR20 cell proliferation” value ([1]; CSS + R1881, ASO 0.20 μM) was 5%. The “Percent inhibition of LMR20 cell proliferation” value ([1]; CSS + R1881, ASO 1.0 μM) was 31%, the “Percent inhibition of LMR20 cell proliferation” value ([1]; CSS + R1881, ASO 5.0 μM) was 67% and the “Percent inhibition of LMR20 cell proliferation” value ([1]; CSS, ASO 0.04 μM) was 0%. For the same compound, the “Percent inhibition of LMR20 cell proliferation” value ([1]; CSS, ASO 0.20 μM) was 5%, the “Percent inhibition of LMR20 cell proliferation” value ([1]; CSS, ASO 1.0 μM) was 0% and the “Percent inhibition of LMR20 cell proliferation” value ([1]; CSS, ASO 5.0 μM) was 11%. For the same compound, the “Percent of gene expression, AR V7 variant” value (from here on “Percent of gene expression”) ([2]; CSS + DHT medium, 0.04 μM) was 82%, the “Percent of gene expression” value ([2]; CSS + DHT medium, 0.2 μM) was 65% and the “Percent of gene expression” value ([2]; CSS + DHT medium, 1.0 μM) was 101%. The “Percent of gene expression” value ([2]; CSS + DHT medium, 5.0 μM) was 181%, the “Percent of gene expression” value ([2]; complete medium, 0.04 μM) was 172% and the “Percent of gene expression” value ([2]; complete medium, 0.2 μM) was 179%. For the same compound, the “Percent of gene expression” value ([2]; complete medium, 1.0 μM) was 244%, the “Percent of gene expression” value ([2]; complete medium, 5.0 μM) was 237% and the “TMPRSS2 mRNA levels (% baseline value) after treatment with DHT” value ([3]; ASO 0.04 μM) was 134 % baseline value. For the same compound, the “TMPRSS2 mRNA levels (% baseline value) after treatment with DHT” value ([3]; ASO 0.20 μM) was 144 % baseline value, the “TMPRSS2 mRNA levels (% baseline value) after treatment with DHT” value ([3]; ASO 1.0 μM) was 132 % baseline value and the “TMPRSS2 mRNA levels (% baseline value) after treatment with DHT” value ([3]; ASO 5.0 μM) was 124 % baseline value. The “TMPRSS2 mRNA levels (% baseline value) after treatment with R1881” value ([3]; ASO 0.20 μM) was 125 % baseline value, the “TMPRSS2 mRNA levels (% baseline value) after treatment with R1881” value ([3]; ASO 1.0 μM) was 133 % baseline value and the “TMPRSS2 mRNA levels (% baseline value) after treatment with R1881” value ([3]; ASO 5.0 μM) was 139 % baseline value. For the same compound, the “TMPRSS2 mRNA levels (% baseline value) of cells without AR agonist treatment” value ([3]; ASO 0.04 μM) was 101 % baseline value, the “TMPRSS2 mRNA levels (% baseline value) of cells without AR agonist treatment” value ([3]; ASO 0.20 μM) was 119 % baseline value and the “TMPRSS2 mRNA levels (% baseline value) of cells without AR agonist treatment” value ([3]; ASO 1.0 μM) was 119 % baseline value. The “TMPRSS2 mRNA levels (% baseline value) of cells without AR agonist treatment” value ([3]; ASO 5.0 μM) was 141 % baseline value, the “TMPRSS2 mRNA levels in LMR20 cells” value ([3]; with or without DHT/R1881) was “did not reduce either PSA or TMPRSS2 mRNA levels” and the “cleaved PARP levels (western blot)” value [4] was “increased in a dose-dependent manner”. For the same compound, the “Percent inhibition of TMPRSS2 expression in LNCaP cells cultured in CSS + DHT medium” value (“Percent inhibition … in CSS + DHT medium” for short) ([5]; 0.04 μM) was 8%, the “Percent inhibition … in CSS + DHT medium” value ([5]; 0.2 μM) was 24% and the “Percent inhibition … in CSS + DHT medium” value ([5]; 1 μM) was 60%. The “Percent inhibition … in CSS + DHT medium” value ([5]; 5.0 μM) was 69%, the “Percent inhibition of TMPRSS2 expression in LNCaP cells cultured in complete medium” value (“Percent inhibition … in complete medium” below) ([5]; 0.04 μM) was 0% and the “Percent inhibition … in complete medium” value ([5]; 0.2 μM) was 0%. For the same compound, the “Percent inhibition … in complete medium” value ([5]; 1 μM) was 34%, the “Percent inhibition … in complete medium” value ([5]; 5.0 μM) was 39% and the inhibition at 1 µM [6] was 5%. The “Percent expression of AR compared to the control group in 8 hours” value (from here on “Percent expression of AR … in 8 hours”) ([7]; 0.04 μM) was 99%, the “Percent expression of AR compared to the control group in 24 hours” value (from here on “Percent expression of AR … in 24 hours”) ([7]; 0.04 μM) was 88% and the “Percent expression of AR compared to the control group in 48 hours” value (from here on “Percent expression of AR … in 48 hours”) ([7]; 0.04 μM) was 94%. The “Percent expression of AR … in 8 hours” value ([7]; 0.2 μM) was 100%, the “Percent expression of AR … in 24 hours” value ([7]; 0.2 μM) was 99% and the “Percent expression of AR … in 48 hours” value ([7]; 0.2 μM) was 94%. For the same compound, the “Percent expression of AR … in 8 hours” value ([7]; 1 μM) was 92%, the “Percent expression of AR … in 24 hours” value ([7]; 1 μM) was 96% and the “Percent expression of AR … in 48 hours” value ([7]; 1 μM) was 113%. For the same compound, the “Percent expression of AR … in 24 hours” value ([7]; 5.0 μM) was 84%, the “Percent expression of AR … in 48 hours” value ([7]; 5.0 μM) was 126% and the AR expression ([7]; C4-2B cells, 8, 24 and 48 hours) was “increased AR expression at the 48 hour time-point”.
